Source: US20110287470A1, “CELL CULTURE METHOD TO FORM AGGREGATES” (priority 2008, published 2011)

Test system: cardiac tissue generated from cardiomyocytes derived from human ESCs
Experiment: Multi-electrode array electrophysiological recordings of CardioSpot cardiac tissue
Type: cell-based
Settings: for repolarising potential (delay measured from the first signal): control 140 ms, FIG. 8
Description: CardioSpot made using primary or stem cell derived cardiomyocytes are placed onto the porous MEAs. Electrophysiological recordings were performed either through the supporting membrane or from under the membrane in order to get a direct contact of the tissues with recording electrodes. Control recording were performed using the culture medium as well a the solution used for reference molecules ([…], and lidocaine) Pharmacological experiments were carried out using reference compounds to characterise and validate the cardiac tissue generated from cardiomyocytes derived from human ESCs and engineered using the method of invention.

| SMILES | repolarising potential (delay measured from the first signal) (30 nM E4031, after 5 min) | repolarising potential (delay measured from the first signal) (30 nM E4031, after 15 min) | decrease of the amplitude of the electrophysiological signals (30 uM lidocaine, after 6 minutes, FIG. 7) | amplitude of the first signal (predominantly dependent on sodium channel opening) (lidocaine, within few minutes, FIG. 7) |
| --- | --- | --- | --- | --- |
| Cc1cccc(CCN2CCC(C(=O)c3ccc(NS(C)(=O)=O)cc3)CC2)n1 [E4031] | 155 ms | 173 ms |  |  |
| CCN(CC)CC(=O)Nc1c(C)cccc1C [lidocaine] |  |  | 50% | dramatic decrease of the amplitude |
